The experiment concerns the target PD-1/PD-L1 interaction (PD-1-Ig / PD-L1-His) (Homo sapiens (Human), UniProt Q9NZQ7). The experiment in a line: PD-1/PD-L1 Homogenous Time-Resolved Fluorescence (HTRF) binding assay. As to conditions: PD-1/PD-L1 HTRF binding assay; value given as range class; read-out: Range or IC50. In short, it runs like this: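 HTRF detection used 1 nM europium-cryptate anti-Ig and 20 nM APC anti-His. Compounds first saw 10 nM PD-L1-His for 15 min, and 20 nM PD-1-Ig was then added for another 15 min. Buffer was dPBS plus 0.1% BSA and 0.05% Tween-20. All concentrations are final.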
For orientation: In TR-FRET formats the signal depends on donor and acceptor labels being close together.
Sequence of PD-1/PD-L1 interaction (PD-1-Ig / PD-L1-His) (Q9NZQ7 other isoform, or with tags, fused parts or gaps): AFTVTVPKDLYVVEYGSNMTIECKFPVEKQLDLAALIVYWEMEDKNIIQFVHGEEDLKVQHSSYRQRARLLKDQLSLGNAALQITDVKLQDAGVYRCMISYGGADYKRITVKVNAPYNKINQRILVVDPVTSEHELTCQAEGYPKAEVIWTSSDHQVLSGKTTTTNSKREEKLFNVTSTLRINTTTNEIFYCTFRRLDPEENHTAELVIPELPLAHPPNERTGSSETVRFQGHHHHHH
For `Cc1c(COc2cc(OCc3cncc(C#N)c3)c(CN3CCCC[C@H]3C(=O)NS(=O)(=O)c3cn(C)cn3)cc2Cl)cccc1-c1ccc2c(c1)OCCO2` [Example 1261, (S)-1-(5-chloro-2-((5-cyanopyridin-3-yl)methoxy)-4-((3-(2,3-dihydrobenzo[b][1,4]dioxin-6-yl)-2-methylbenzyl)oxy)benzyl)-N-((1-methyl-1H-imidazol-4-yl)sulfonyl)piperidine-2-carboxamide], the half-maximal inhibitory concentration (IC50) (as a rule, the concentration that gives 50% inhibition) is 0.6 to 10 nM.
As for `CC(=O)NCCNCc1ccc(OCc2cccc(-c3ccccc3)c2C)cc1OCc1cccc(C)c1F` [Example 1070, N-(2-((2-((2-fluoro-3-methylbenzyl)oxy)-4-((2-methyl-[1,1′-biphenyl]-3-yl)methoxy)benzyl)amino)ethyl)acetamide], the half-maximal inhibitory concentration (IC50) is 100 to 20000 nM.
For `Cc1cc(CN2CCCC[C@H]2C(=O)O)c(OCc2ccc(F)c(C#N)c2)cc1OCc1cccc(-c2ccc3c(c2)OCCO3)c1C` [Example 1272, (S)-1-(2-((3-cyano-4-fluorobenzyl)oxy)-4-((3-(2,3-dihydrobenzo[b][1,4]dioxin-6-yl)-2-methylbenzyl)oxy)-5-methylbenzyl)piperidine-2-carboxylic acid], the IC50 lay in the range of 0.6 to 10 nM.
Under `Cc1c(COc2cc(OCc3cccc(C#N)c3)c(CNCc3nnn[nH]3)cc2Cl)cccc1-c1ccc2c(c1)OCCO2` [Example 1229, 3-((2-((((1H-tetrazol-5-yl)methyl)amino)methyl)-4-chloro-5-((3-(2,3-dihydrobenzo[b][1,4]dioxin-6-yl)-2-methylbenzyl)oxy)phenoxy)methyl)benzonitrile] stands 0.6 to 10 nM; under `Cc1c(COc2cc(OCc3cncc(C#N)c3)c(CNC[C@@H](O)CC(=O)O)cc2Br)cccc1-c1ccc2c(c1)OCCO2` [Example 1316, (S)-4-(5-bromo-2-((5-cyanopyridin-3-yl)methoxy)-4-(3-(2,3-dihydrobenzo[b][1,4]dioxin-6-yl)-2-methylbenzyloxy)benzylamino)-3-hydroxybutanoic acid], 0.6 to 10 nM.
Under `COc1cc(COc2cc(OCc3cccc(-c4ccc5c(c4)OCCO5)c3C)c(Cl)cc2CN2CCCC[C@H]2C(=O)O)ccn1` [Example 3017, (S)-1-(5-chloro-4-((3-(2,3-dihydrobenzo[b][1,4]dioxin-6-yl)-2-methylbenzyl)oxy)-2-((2-methoxypyridin-4-yl)methoxy)benzyl)piperidine-2-carboxylic acid] stands 10 to 100 nM.
As for `Cc1c(COc2cc(OCc3cccc(C#N)c3)c(CNC(Cc3c[nH]cn3)C(=O)O)cc2Cl)cccc1-c1ccc2c(c1)OCCO2` (centres unmarked) [Example 1164, 2-((5-chloro-2-((3-cyanobenzyl)oxy)-4-((3-(2,3-dihydrobenzo[b][1,4]dioxin-6-yl)-2-methylbenzyl)oxy)benzyl)amino)-3-(1H-imidazol-4-yl)propanoic acid], the IC50 fell in the range of 0.6 to 10 nM.
Consider `Cc1c(COc2ccc(CN[C@@H](C(=O)O)[C@H](C)O)c(OCc3cccc(C#N)c3)c2)cccc1-c1ccc2c(c1)OCCO2` [Example 1123, (2R,3S)-2-((2-((3-cyanobenzyl)oxy)-4-((3-(2,3-dihydrobenzo[b][1,4]dioxin-6-yl)-2-methylbenzyl)oxy)benzyl)amino)-3-hydroxybutanoic acid], for which the IC50 is 0.6 to 10 nM.
For `COC(C)(C)C(NCc1cc(Cl)c(OCc2cccc(-c3ccc4c(c3)OCCO4)c2C)cc1OCc1cccc(C#N)c1)C(=O)O` (centres unmarked) [Example 1179, 2-((5-chloro-2-((3-cyanobenzyl)oxy)-4-((3-(2,3-dihydrobenzo[b][1,4]dioxin-6-yl)-2-methylbenzyl)oxy)benzyl)amino)-3-methoxy-3-methylbutanoic acid], the IC50 was in the range of 10 to 100 nM.
Under `CCc1cc(CN[C@@](C)(CO)C(=O)O)c(OCc2cccc(C#N)c2)cc1OCc1cccc(-c2ccc3c(c2)OCCO3)c1C` [Example 1290, (S)-2-(2-(3-cyanobenzyloxy)-4-(3-(2,3-dihydrobenzo[b][1,4]dioxin-6-yl) -2-methylbenzyloxy)-5-ethylbenzylamino)-3-hydroxy-2-methylpropanoic acid] stands 0.6 to 10 nM.
Under `Cc1cc(CN[C@@](C)(CO)C(=O)O)c(OCc2cccnc2)cc1OCc1cccc(-c2ccc3c(c2)OCCO3)c1C` [Example 1280, (S)-2-((4-((3-(2,3-dihydrobenzo[b][1,4]dioxin-6-yl)-2-methylbenzyl)oxy)-5-methyl-2-(pyridin-3-ylmethoxy)benzyl)amino)-3-hydroxy-2-methylpropanoic acid] stands 0.6 to 10 nM.
Consider `Cc1c(COc2cc(OCc3cccc(C#N)c3)c(CNC(Cc3nccs3)C(=O)O)cc2Cl)cccc1-c1ccc2c(c1)OCCO2` (centres unmarked) [Example 1178, 2-((5-chloro-2-((3-cyanobenzyl)oxy)-4-((3-(2,3-dihydrobenzo[b][1,4]dioxin-6-yl)-2-methylbenzyl)oxy)benzyl)amino)-3-(thiazol-2-yl)propanoic acid], for which the IC50 was in the range of 10 to 100 nM.
Under `COc1cc(F)cc(COc2cc(OCc3cccc(-c4ccccc4)c3C)ccc2CNCCNC(C)=O)c1` [Example 1096, N-(2-((2-((3-fluoro-5-methoxybenzyl)oxy)-4-((2-methyl-[1,1′-biphenyl]-3-yl)methoxy)benzyl)amino)ethyl)acetamide] stands 100 to 20000 nM; under `CC(=O)NCCNCc1ccc(OCc2cccc(-c3ccccc3)c2C)cc1OCc1cccc(OC(F)F)c1` [Example 1116, N-(2-((2-((3-(difluoromethoxy)benzyl)oxy)-4-((2-methyl-[1,1′-biphenyl]-3-yl)methoxy)benzyl)amino)ethyl)acetamide], 100 to 20000 nM; under `CC(=O)NCCNCc1ccc(OCc2cccc(-c3ccccc3)c2C)cc1OCc1nccc2ccccc12` [Example 1118, N-(2-((2-(isoquinolin-1-ylmethoxy)-4-((2-methyl-[1,1′-biphenyl]-3-yl)methoxy)benzyl)amino)ethyl)acetamide], 100 to 20000 nM.
Regarding `Cc1cc(CN[C@H](CO)C(=O)O)c(OCc2cncc(C#N)c2)cc1OCc1cccc(-c2ccc3c(c2)OCCO3)c1C#N` [Example 1310, (R)-2-(4-(2-cyano-3-(2,3-dihydrobenzo[b][1,4]dioxin-6-yl)benzyloxy)-2-((5-cyanopyridin-3-yl)methoxy)-5-methylbenzylamino)-3-hydroxypropanoic acid], the IC50 lay within 0.6 to 10 nM.
In the case of `Cc1c(C#N)cncc1COc1cc(OCc2cccc(-c3ccccc3)c2C)ccc1CN[C@H](CO)C(=O)O` [Example 1324, (R)-2-(2-((5-cyano-4-methylpyridin-3-yl)methoxy)-4-((2-methylbiphenyl-3-yl)methoxy)benzylamino)-3-hydroxypropanoic acid], the IC50 fell in the range of 10 to 100 nM.
On to `Cc1c(COc2cc(OCc3cncc(C#N)c3)c(CNCC(=O)O)cc2Cl)cccc1-c1ccc2c(c1)OCCO2` [Example 2013, 2-((5-chloro-2-((5-cyanopyridin-3-yl)methoxy)-4-((3-(2,3-dihydrobenzo[b][1,4]dioxin-6-yl)-2-methylbenzyl)oxy)benzyl)amino)acetic acid], for which the IC50 is 0.6 to 10 nM.
Turning to `Cc1c(COc2cc(OCc3cccc(C#N)c3)c(CN[C@H](C)C(=O)O)cc2Cl)cccc1-c1ccc2c(c1)OCCO2` [Example 1169, (R)-2-((5-chloro-2-((3-cyanobenzyl)oxy)-4-((3-(2,3-dihydrobenzo[b][1,4]dioxin-6-yl)-2-methylbenzyl)oxy)benzyl)amino)propanoic acid], the IC50 fell in the range of 0.6 to 10 nM.
For `Cc1c(COc2cc(OCc3cccc(C#N)c3)c(CNC(C)(C)CN3CCN(C)CC3)cc2Cl)cccc1-c1ccc2c(c1)OCCO2` [Example 1223, 3-((4-chloro-5-((3-(2,3-dihydrobenzo[b][1,4]dioxin-6-yl)-2-methylbenzyl)oxy)-2-(((2-methyl-1-(4-methylpiperazin-1-yl)propan-2-yl)amino)methyl)phenoxy)methyl)benzonitrile], the IC50 was 0.6 to 10 nM.
Under `Cc1c(COc2cc(OCc3cccc(C#N)c3)c(CN[C@@H](C(=O)O)[C@@H](C)O)cc2Cl)cccc1-c1ccc2c(c1)OCCO2` [Example 1163, (2R,3R)-2-((5-chloro-2-((3-cyanobenzyl)oxy)-4-((3-(2,3-dihydrobenzo[b][1,4]dioxin-6-yl)-2-methylbenzyl)oxy)benzyl)amino)-3-hydroxybutanoic acid] stands 0.6 to 10 nM; under `Cc1c(COc2cc(OCc3cncc(C#N)c3)c(CN[C@@](C)(CO)C(=O)O)cc2Br)cccc1-c1ccc2c(c1)OCCO2` [Example 1321, (S)-2-(5-bromo-2-((5-cyanopyridin-3-yl)methoxy)-4-(3-(2,3-dihydrobenzo[b][1,4]dioxin-6-yl)-2-methylbenzyloxy)benzylamino)-3-hydroxy-2-methylpropanoic acid], 0.6 to 10 nM.
Under `CC(=O)NCCNCc1ccc(OCc2cccc(-c3ccccc3)c2C)cc1OCc1cccc(C)c1` [Example 1025, N-(2-((4-((2-methyl-[1,1′-biphenyl]-3-yl)methoxy)-2-((3-methylbenzyl)oxy)benzyl)amino)ethyl)acetamide] stands 100 to 20000 nM; under `Cc1c(COc2ccc(CN[C@@](C)(CO)C(=O)O)c(OCc3cccc(C#N)c3)c2)cccc1-c1ccccc1` [Example 1019, (S)-2-((2-((3-cyanobenzyl)oxy)-4-((2-methyl-[1,1′-biphenyl]-3-yl)methoxy)benzyl)amino)-3-hydroxy-2-methylpropanoic acid], 0.6 to 10 nM.
As to `COc1ccc(F)c(COc2cc(OCc3cccc(-c4ccccc4)c3C)ccc2CNCCNC(C)=O)c1F` [Example 1092, N-(2-((2-((2,6-difluoro-3-methoxybenzyl)oxy)-4-((2-methyl-[1,1′-biphenyl]-3-yl)methoxy)benzyl)amino)ethyl)acetamide], the half-maximal inhibitory concentration (IC50) lay in the range of 100 to 20000 nM.
Turning to `Cc1c(COc2cc(OCc3cncc(C(=O)O)c3)c(CN[C@@](C)(CO)C(=O)O)cc2Cl)cccc1-c1ccc2c(c1)OCCO2` [Example 2001, (S)-5-((2-(((2-carboxy-1-hydroxypropan-2-yl)amino)methyl)-4-chloro-5-((3-(2,3-dihydrobenzo[b][1,4]dioxin-6-yl)-2-methylbenzyl)oxy)phenoxy)methyl)nicotinic acid], the IC50 fell in the range of 0.6 to 10 nM.

The values above are taken from patent US9850225B2, “Compounds useful as immunomodulators” (BRISTOL-MYERS SQUIBB COMPANY, priority 2014, dated 2017).
